Test results published in patent publication US11446307B2, “Crystalline forms of a deoxycytidine kinase inhibitor and uses thereof” (Trethera Corporation, priority 2020, dated 2022).

What was measured:
[1] = tested on: myelin oligodendrocyte glycoprotein (MOG)-induced experimental autoimmune encephalomyelitis (EAE); assay: Mouse model of MOG-induced experimental autoimmune encephalomyelitis (EAE), prophylactic and therapeutic dosing; assay type: in vivo; conditions: 75 mg/kg P.O. BID Days 8-25 (therapeutic)
Description: Adult female C57BL/6J mice were randomly allocated to experimental groups and allowed to acclimatize for one week prior to commencing the study. On Day 0 and Day 7, animals were administered an emulsion (200 μL/mouse) of MOG35-55 and complete Freund's adjuvant (CFA). […]. On Day 0 (immediately post-MOG injection) and Day 2, animals were administered with pertussis toxin (PTx, 500 ng/mouse) prepared in phosphate buffered saline (PBS, 100 μL/mouse) by intra-peritoneal injection.
Treatment was performed twice daily (BID) prophylactically starting on Day 1 for groups 1, 2, and 4, and therapeutically starting on day 8 for group 3. All experimental groups were n=12. The administration interval was 12 hours and the administration volume was 5 mL/kg.
Because body weight loss is known to be an important hallmark of EAE occurring in correspondence of the appearance of the first symptoms, animals were weighed daily from the day of immunization (Day 0) until the end of the experiment. The changes in body weight observed over the course of the experiment for the different experimental groups, presented as mean±SEM, are summarized in FIG. 7. […]
From Day 0 until the end of the experiment, animals were scored daily for clinical signs of EAE to include paresis and paralysis affecting the tail and the limbs. […]

[2] = tested on: myelin oligodendrocyte glycoprotein (MOG)-induced experimental autoimmune encephalomyelitis (EAE); assay: Variable dose mouse model of MOG-induced experimental autoimmune encephalomyelitis (EAE); assay type: in vivo; conditions: vehicle BID 18 days, Log-rank p=0.039
Description: 60 female C57BL/6 mice were housed for an acclimation period of 1 week. 53 mice were enrolled in the study after randomization with a body weight between 18.3-22.3 g with an average body weight of 19.7 g per group on Study day minus 1.
For induction of MOG-EAE, MOG35-55 peptide was administered in phosphate buffered saline (PBS) and complete Freund's adjuvant (CFA). MOG35-55 peptide in PBS was emulsified in a 1:1 (v:v) mixture with CFA via homogenization in an Omni BeadRuptor Elite using 7 mL tubes pre-filled with 2.8 mm ceramic beads. Briefly, MOG35-55 peptide was brought up to 1 mg/mL in cold PBS, and 1.75 mL aliquoted into each homogenization tube. An equal volume (1.75 mL) CFA was then added for a total volume of 3.5 mL, on ice. Two rounds of homogenization were performed using a speed of 3.5 m/s; 3 cycles of 45 seconds with 30 seconds dwell at 4° C., followed by a third round with 2 cycles of 45 seconds and 30 seconds dwell at 4° C. In between each round, samples were placed on ice for ˜15 minutes. Tubes were spun down at 300 g for 1 minute at 4° C. Mice were anesthetized under isoflurane anesthesia. 100 μL (50 μg MOG35-55) was then injected subcutaneously into the flank of each leg (for a total of two injections and 100 μg MOG35-55). On Study Day 0 and Day 2, pertussis toxin was formulated at a concentration of […] in PBS, and 100 μL (200 ng) injected into each animal by intraperitoneal injection.
Treatment was performed BID starting on Day 1 for groups 2, 3, and 4, and once daily (QD) starting on day 1 for group 5. All experimental groups were n=12. The administration interval was 12 hours and the administration volume was 5 mL/kg.
The Body condition score of all animals was monitored on study Days 0, 7, 10 and then every other day. […]
Disease severity was scored on Day 0, 7 and every 2 days beginning on Day 10 onward for all groups. […]
Disease incidence rate was calculated as percentage of total animals per group starting from day 0 until termination on study day 28. […]

[3] = Accelerated stability tests of polymorph Form II (HPLC purity and potency); assay type: physicochemical
Description: High-performance liquid chromatography (HPLC) was performed using the following instrument and/or conditions.

Row | SMILES | animals showing no symptoms at all (complete remission) ([1]; after Day 20) | disease incidence (highest reached) ([1]; on Day 19, vehicle reached 100% on Day 13) | median time to disease ([2]; 25 mg/kg BID PO) | median time to disease ([2]; 75 mg/kg BID PO) | median time to disease ([2]; 100 mg/kg QD PO) | Potency (%) ([3]; 25° C./60% RH for 1 week) | Purity (area %) ([3]; 25° C./60% RH for 1 week) | Potency (%) ([3]; 40° C./75% RH for 1 week) | Purity (area %) ([3]; 40° C./75% RH for 1 week) | Potency (%) ([3]; 60° C. for 1 week) | Purity (area %) ([3]; 60° C. for 1 week) | Potency (%) ([3]; API standard (no exposure)) | Purity (area %) ([3]; API standard (no exposure))
1 | COc1ccc(-c2nc([C@@H](C)Sc3nc(N)cc(N)n3)c(C)s2)cc1OCCN1CCOCC1 [Compound 1, (R)-2-((1-(2-(4-methoxy-3-(2-morpholinoethoxy)phenyl)-5-methylthiazol-4-yl)ethyl)thio)pyrimidine-4,6-diamine] | ~27% | ~92% | 18 days | 19 days | 20 days | – | – | – | – | – | – | – | –
2 | COc1ccc(-c2nc([C@@H](C)Sc3nc(N)cc(N)n3)c(C)s2)cc1OCCN1CCOCC1 [polymorph Form II, (R)-2-((1-(2-(4-methoxy-3-(2-morpholinoethoxy)phenyl)-5-methylthiazol-4-yl)ethyl)thio)pyrimidine-4,6-diamine] | – | – | – | – | – | 98.7% | 98.75 area % | 98.6% | 98.66 area % | 98.6% | 98.75 area % | 98.6% | 98.22 area %
